Drawing on PubChem BioAssay AID1259407 (Chemical Carcinogenesis Research Information System (CCRIS), 2018), this text covers mutagenic call for three compounds.

Calls of active or inactive are those of the source. No rule for the calls is given here.

This data set has as its system CCRIS mutagenicity, Ames/micronucleus/aberration tests. Description: CCRIS mutagenicity studies.
Where [1] appears, read: Test System: AMES SALMONELLA TYPHIMURIUM, Strain/Indicator: TA98, Metabolic Activation: NONE, Method: STANDARD PLATE.
[2] abbreviates: Test System: AMES SALMONELLA TYPHIMURIUM, Strain/Indicator: TA100, Metabolic Activation: NONE, Method: STANDARD PLATE.

As to `CN(C)CCCNc1c2ccccc2nc2ccccc12`, the mutagenic call runs as follows: (Test System: AMES SALMONELLA TYPHIMURIUM, Strain/Indicator: TA98(1,8-DNP6), Metabolic Activation: NONE, Method: STANDARD PLATE) “inactive; negative”; (Test System: AMES SALMONELLA TYPHIMURIUM, Strain/Indicator: TA98(1,8-DNP6), Metabolic Activation: RAT, LIVER, S-9, Method: STANDARD PLATE) “inactive; negative”; (Test System: AMES SALMONELLA TYPHIMURIUM, Strain/Indicator: TA98(NR), Metabolic Activation: NONE, Method: STANDARD PLATE) “inactive; negative”; (Test System: AMES SALMONELLA TYPHIMURIUM, Strain/Indicator: TA98(NR), Metabolic Activation: RAT, LIVER, S-9, Method: STANDARD PLATE) “active; positive”; under setting [1], “inactive; negative”; (Test System: AMES SALMONELLA TYPHIMURIUM, Strain/Indicator: TA98, Metabolic Activation: RAT, LIVER, S-9, Method: STANDARD PLATE) “inactive; negative”. Besides, the mutagenic call was “inactive; negative” under setting [2]; “inactive; negative” (Test System: AMES SALMONELLA TYPHIMURIUM, Strain/Indicator: TA1535, Metabolic Activation: NONE, Method: STANDARD PLATE); “active; positive” (Test System: AMES SALMONELLA TYPHIMURIUM, Strain/Indicator: TA1537, Metabolic Activation: NONE, Method: STANDARD PLATE); “active; positive” (Test System: AMES SALMONELLA TYPHIMURIUM, Strain/Indicator: TA1537 PKM101, Metabolic Activation: NONE, Method: STANDARD PLATE); “active; positive” (Test System: AMES SALMONELLA TYPHIMURIUM, Strain/Indicator: TA1538, Metabolic Activation: NONE, Method: STANDARD PLATE); “inactive; negative” (Test System: CHINESE HAMSTER V-79, Strain/Indicator: V-79/6-THIOGUANINE, Metabolic Activation: NONE, Method: STANDARD PLATE). For the same compound, the mutagenic call (Test System: CHINESE HAMSTER V-79, Strain/Indicator: V-79/OUABAIN, Metabolic Activation: NONE, Method: STANDARD PLATE) was “inactive; negative”; the mutagenic call (Test System: Escherichia coli, Strain/Indicator: CC107 (G6 to G7 frameshifts), Metabolic Activation: None, Method: Modified preincubation) is “active; positive”; the mutagenic call (Test System: Escherichia coli, Strain/Indicator: CC108 (G6 to G5 frameshifts), Metabolic Activation: None, Method: Modified preincubation) was “active; positive”; the mutagenic call (Test System: Escherichia coli, Strain/Indicator: CC109 (CG5 to CG4 frameshifts), Metabolic Activation: None, Method: Modified preincubation) was “active; positive”; the mutagenic call (Test System: Escherichia coli, Strain/Indicator: CC111 (A7 to A6 frameshifts), Metabolic Activation: None, Method: Modified preincubation) is “active; positive”.
On to `O=C(O)COc1cc(Cl)c(Cl)cc1Cl`, for which the mutagenic call by setting is: (End Point: IN VITRO CHROMOSOMAL ABERRATIONS, Test System: CHINESE HAMSTER OVARY CELLS, Metabolic Activation: NONE) “inactive; negative”; (End Point: IN VITRO CHROMOSOMAL ABERRATIONS, Test System: CHINESE HAMSTER OVARY CELLS, Metabolic Activation: RAT, LIVER, S-9, AROCLOR 1254) “active; positive; precipitation occurred at all doses”; (Test System: AMES SALMONELLA TYPHIMURIUM, Strain/Indicator: TA97, Metabolic Activation: NONE, Method: STANDARD PLATE) “inactive; negative”; (Test System: AMES SALMONELLA TYPHIMURIUM, Strain/Indicator: TA97, Metabolic Activation: RAT, LIVER, S-9, AROCLOR 1254, Method: STANDARD PLATE) “inactive; negative”; (Test System: AMES SALMONELLA TYPHIMURIUM, Strain/Indicator: TA98, Metabolic Activation: NONE) “inactive; negative”; under setting [1], “inactive; negative”. Moreover, the mutagenic call (Test System: AMES SALMONELLA TYPHIMURIUM, Strain/Indicator: TA98, Metabolic Activation: RAT, LIVER, S-9, AROCLOR 1254) was “inactive; negative”; the mutagenic call (Test System: AMES SALMONELLA TYPHIMURIUM, Strain/Indicator: TA98, Metabolic Activation: RAT, LIVER, S-9, AROCLOR 1254, Method: STANDARD PLATE) is “inactive; negative”; the mutagenic call (Test System: AMES SALMONELLA TYPHIMURIUM, Strain/Indicator: TA100, Metabolic Activation: NONE) is “inactive; negative”; the mutagenic call under setting [2] was “inactive; negative”; the mutagenic call (Test System: AMES SALMONELLA TYPHIMURIUM, Strain/Indicator: TA100, Metabolic Activation: RAT, LIVER, S-9, AROCLOR 1254) was “inactive; negative”; the mutagenic call (Test System: AMES SALMONELLA TYPHIMURIUM, Strain/Indicator: TA100, Metabolic Activation: RAT, LIVER, S-9, AROCLOR 1254, Method: STANDARD PLATE) is “inactive; negative”. For the same compound, the mutagenic call reads like this: (Test System: AMES SALMONELLA TYPHIMURIUM, Strain/Indicator: TA102, Metabolic Activation: NONE) “inactive; negative”; (Test System: AMES SALMONELLA TYPHIMURIUM, Strain/Indicator: TA102, Metabolic Activation: NONE, Method: STANDARD PLATE) “inactive; negative”; (Test System: AMES SALMONELLA TYPHIMURIUM, Strain/Indicator: TA102, Metabolic Activation: RAT, LIVER, S-9, AROCLOR 1254) “inactive; negative”; (Test System: AMES SALMONELLA TYPHIMURIUM, Strain/Indicator: TA102, Metabolic Activation: RAT, LIVER, S-9, AROCLOR 1254, Method: STANDARD PLATE) “inactive; negative”; (Test System: AMES SALMONELLA TYPHIMURIUM, Strain/Indicator: TA104, Metabolic Activation: NONE) “inactive; negative”; (Test System: AMES SALMONELLA TYPHIMURIUM, Strain/Indicator: TA104, Metabolic Activation: RAT, LIVER, S-9, AROCLOR 1254) “inactive; negative”.
Consider `c1cc(-c2ccncc2)ccn1`, for which the mutagenic call is “inactive; negative” (Test System: AMES SALMONELLA TYPHIMURIUM, Strain/Indicator: TA97, Metabolic Activation: RAT, LIVER, S-9, PHENOBARBITAL, Method: STANDARD PLATE); “active; positive” (Test System: AMES SALMONELLA TYPHIMURIUM, Strain/Indicator: TA97, Metabolic Activation: RAT, LIVER, S-9, SODIUM PHENOBARBITAL, Method: PREINCUBATION); “inactive; negative” (Test System: AMES SALMONELLA TYPHIMURIUM, Strain/Indicator: TA98, Metabolic Activation: RAT, LIVER, S-9, PHENOBARBITAL, Method: STANDARD PLATE); “inactive; negative” (Test System: AMES SALMONELLA TYPHIMURIUM, Strain/Indicator: TA100, Metabolic Activation: RAT, LIVER, S-9, PHENOBARBITAL, Method: STANDARD PLATE); “active; positive” (Test System: AMES SALMONELLA TYPHIMURIUM, Strain/Indicator: TA100, Metabolic Activation: RAT, LIVER, S-9, SODIUM PHENOBARBITAL, Method: PREINCUBATION); “inactive; negative” (Test System: AMES SALMONELLA TYPHIMURIUM, Strain/Indicator: TA1535, Metabolic Activation: RAT, LIVER, S-9, PHENOBARBITAL, Method: STANDARD PLATE). Moreover, the mutagenic call is, setting by setting: (Test System: AMES SALMONELLA TYPHIMURIUM, Strain/Indicator: TA1537, Metabolic Activation: RAT, LIVER, S-9, PHENOBARBITAL, Method: STANDARD PLATE) “active; positive”; (Test System: AMES SALMONELLA TYPHIMURIUM, Strain/Indicator: TA1538, Metabolic Activation: RAT, LIVER, S-9, PHENOBARBITAL, Method: STANDARD PLATE) “inactive; negative”.
